Among the data in patent US12509454B2, “Thiadiazolyl derivatives” (IDEAYA Biosciences, Inc., priority 2019, dated 2025) are IC50 values, retold here.

SMILES strings stand for the structures.

In this test the target is Pol theta (1-899) (Homo sapiens (Human), UniProt O75417). Nature of the test: Pol theta ATPase activity, NADH oxidation-coupled enzymatic assay. The note with it: Pol theta (1-899) 10 nM, ATP, dT50 ssDNA, absorbance 340 nm, 10-point dilution series; read-out: ATPase NADH coupling:Standard Screening:hPolQ IC50. The class given is biochemical. A digest of the protocol:
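Pol theta (1-899), 10 nM, preincubated 15 min at RT with 10-point compound series in Tris pH 7.80/KCl/MgCl2 buffer, then given 100 μM ATP plus 300 nM dT50 ssDNA with PK/LDH-coupled NADH oxidation. A340 followed for 30 min; rate slopes fitted with a four-parameter model for IC50.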

One may read the IC50 as the point on the concentration scale where inhibition reaches its midpoint.

Chain of Pol theta (1-899) (O75417 1-899): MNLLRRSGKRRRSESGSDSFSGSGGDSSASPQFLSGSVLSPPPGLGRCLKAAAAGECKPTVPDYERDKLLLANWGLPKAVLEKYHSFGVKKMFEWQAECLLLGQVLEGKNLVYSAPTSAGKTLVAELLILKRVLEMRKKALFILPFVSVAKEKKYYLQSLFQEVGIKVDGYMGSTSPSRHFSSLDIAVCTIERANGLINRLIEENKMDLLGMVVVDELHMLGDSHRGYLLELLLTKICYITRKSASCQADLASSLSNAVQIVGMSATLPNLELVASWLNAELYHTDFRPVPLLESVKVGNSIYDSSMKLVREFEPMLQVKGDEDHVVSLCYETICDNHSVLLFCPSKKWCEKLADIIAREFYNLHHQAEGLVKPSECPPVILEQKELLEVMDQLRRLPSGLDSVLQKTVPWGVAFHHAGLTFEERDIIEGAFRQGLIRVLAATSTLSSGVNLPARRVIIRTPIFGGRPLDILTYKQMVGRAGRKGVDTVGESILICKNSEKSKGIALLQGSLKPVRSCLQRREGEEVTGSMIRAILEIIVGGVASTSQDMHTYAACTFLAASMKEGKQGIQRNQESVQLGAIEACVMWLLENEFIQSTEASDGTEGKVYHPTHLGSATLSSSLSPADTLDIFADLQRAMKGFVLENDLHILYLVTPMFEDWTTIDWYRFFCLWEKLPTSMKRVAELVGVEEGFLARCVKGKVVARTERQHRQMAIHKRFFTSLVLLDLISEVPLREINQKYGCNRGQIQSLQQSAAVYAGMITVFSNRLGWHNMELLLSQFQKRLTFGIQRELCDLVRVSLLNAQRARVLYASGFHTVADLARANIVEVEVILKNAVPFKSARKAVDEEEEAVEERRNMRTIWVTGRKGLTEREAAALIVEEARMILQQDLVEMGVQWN

Regarding `COc1cc(F)ccc1-c1ccncc1C(=O)Nc1nnc(OCc2ccc(Cl)cc2)s1` [Example 155, N-[5-[(4-chlorophenyl)methoxy]-1,3,4-thiadiazol-2-yl]-4-(4-fluoro-2-methoxyphenyl)pyridine-3-carboxamide], the IC50 is at most 200 nM.

For `COc1ccccc1-c1cc(C(F)(F)F)ncc1C(=O)Nc1nnc(OCc2ccc(Cl)cc2)s1` [Example 156, N-[5-[(4-chlorophenyl)methoxy]-1,3,4-thiadiazol-2-yl]-4-(2-methoxyphenyl)-6-(trifluoromethyl)pyridine-3-carboxamide], the IC50 was at most 200 nM.

As for `COc1ccccc1-c1cnccc1C(=O)Nc1nnc(OCc2cccc(Cl)c2)s1` [Example 157, N-(5-((3-chlorobenzyl)oxy)-1,3,4-thiadiazol-2-yl)-3-(2-methoxyphenyl)isonicotinamide], the IC50 was at most 200 nM.

Regarding `COc1ccccc1-c1cnccc1C(=O)Nc1nnc(OCc2ccc(Cl)c(Cl)c2)s1` [Example 158, N-[5-[(3,4-dichlorophenyl)methoxy]-1,3,4-thiadiazol-2-yl]-3-(2-methoxyphenyl)pyridine-4-carboxamide], the IC50 is at most 200 nM.

Take `COc1c(C#N)cccc1-c1cnccc1C(=O)Nc1nnc(OCc2ccc(Cl)cc2)s1` [Example 159, N-(5-((4-chlorobenzyl)oxy)-1,3,4-thiadiazol-2-yl)-3-(3-cyano-2-methoxyphenyl)isonicotinamide]: the IC50 is at most 200 nM.

Consider `COc1cc(C(=O)Nc2nnc(OCc3ccc(Cl)cc3)s2)c(-c2ccccc2OC)cn1` [Example 160, N-(5-((4-chlorobenzyl)oxy)-1,3,4-thiadiazol-2-yl)-2-methoxy-5-(2-methoxyphenyl)isonicotinamide], for which the IC50 is at most 200 nM.

`COc1ccccc1-c1cn2ccnc2cc1C(=O)Nc1nnc(OCc2ccc(Cl)cc2)s1` [Example 161, N-(5-((4-chlorobenzyl)oxy)-1,3,4-thiadiazol-2-yl)-6-(2-methoxyphenyl)imidazo[1,2-a]pyridine-7-carboxamide]: the IC50 was at most 200 nM.

Consider `Cc1n[nH]cc1-c1cnccc1C(=O)Nc1nnc(OCc2ccc(Cl)cc2)s1` [Example 162, N-(5-((4-chlorobenzyl)oxy)-1,3,4-thiadiazol-2-yl)-3-(3-methyl-1H-pyrazol-4-yl)isonicotinamide], for which the IC50 is at most 200 nM.

Take `COc1ccccc1-c1cc(CCC(N)=O)ncc1C(=O)Nc1nnc(OCc2ccc(Cl)cc2)s1` [Example 163, 6-(3-amino-3-oxopropyl)-N-(5-((4-chlorobenzyl)oxy)-1,3,4-thiadiazol-2-yl)-4-(2-methoxyphenyl)nicotinamide]: the IC50 was at most 200 nM.

Take `COc1ccccc1-c1cc(CCC#N)ncc1C(=O)Nc1nnc(OCc2ccc(Cl)cc2)s1` [Example 164, N-[5-[(4-chlorophenyl)methoxy]-1,3,4-thiadiazol-2-yl]-6-(2-cyanoethyl)-4-(2-methoxyphenyl)pyridine-3-carboxamide]: the half-maximal inhibitory concentration (IC50) was at most 200 nM.

For the molecule `O=C(Nc1nnc(OCc2ccc(Cl)cc2)s1)c1ccncc1-c1ccccc1OC1CC(O)C1` (stereo not shown) [Example 165, N-(5-((4-chlorobenzyl)oxy)-1,3,4-thiadiazol-2-yl)-3-(2-(3-hydroxycyclobutoxy)phenyl)isonicotinamide], the half-inhibitory concentration (IC50) is at most 200 nM.

As for `COc1ccccc1-c1cc(CCO)ncc1C(=O)Nc1nnc(OCc2ccc(Cl)cc2)s1` [Example 166, N-(5-((4-chlorobenzyl)oxy)-1,3,4-thiadiazol-2-yl)-6-(2-hydroxyethyl)-4-(2-methoxyphenyl)nicotinamide], the IC50 is at most 200 nM.

For the molecule `O=C(Nc1nnc(OCc2ccc(Cl)cn2)s1)c1cncn1-c1ccccc1OC(F)F` [Example 168, N-[5-[(5-chloropyridin-2-yl)methoxy]-1,3,4-thiadiazol-2-yl]-3-[2-(difluoromethoxy)phenyl]imidazole-4-carboxamide], the IC50 is at most 200 nM.

For `Cc1nn(C)cc1-c1cnccc1C(=O)Nc1nnc(OCc2ccc(Cl)cc2)s1` [Example 169, N-[5-[(4-chlorophenyl)methoxy]-1,3,4-thiadiazol-2-yl]-3-(1,3-dimethylpyrazol-4-yl)pyridine-4-carboxamide], the IC50 is at most 200 nM.

For `COc1ccccc1-c1cc(CO)ncc1C(=O)Nc1nnc(OCc2ccc(Cl)cn2)s1` [Example 170, N-[5-[(5-chloropyridin-2-yl)methoxy]-1,3,4-thiadiazol-2-yl]-6-(hydroxymethyl)-4-(2-methoxyphenyl)pyridine-3-carboxamide], the IC50 is at most 200 nM.

On to `O=C(Nc1nnc(OCc2ccc(Cl)cc2)s1)c1ccncc1-c1ccccc1CCO` [Example 171, N-(5-((4-chlorobenzyl)oxy)-1,3,4-thiadiazol-2-yl)-3-(2-(2-hydroxyethyl)phenyl)isonicotinamide], for which the IC50 is at most 200 nM.

Regarding `N#Cc1ccc(OC2COC2)c(-c2cnccc2C(=O)Nc2nnc(OCc3ccc(Cl)cc3)s2)c1` [Example 172, N-(5-((4-chlorobenzyl)oxy)-1,3,4-thiadiazol-2-yl)-3-(5-cyano-2-(oxetan-3-yloxy)phenyl)isonicotinamide], the IC50 was at most 200 nM.

`O=C(Nc1nnc(OCc2ccc(Cl)cn2)s1)c1ccncc1N1CCOC2(CC2)C1` [Example 173, N-[5-[(5-chloropyridin-2-yl)methoxy]-1,3,4-thiadiazol-2-yl]-3-[4-oxa-7-azaspiro[2.5]octan-7-yl]pyridine-4-carboxamide]: the IC50 lay in the range of 200 to 500 nM.

`COc1ccccc1-c1cnccc1C(=O)Nc1nnc(OCc2ccccc2)s1` [Example 174, N-(5-(benzyloxy)-1,3,4-thiadiazol-2-yl)-3-(2-methoxyphenyl)isonicotinamide]: the IC50 is at most 200 nM.

For the molecule `O=C(Nc1nnc(OCc2ccc(Cl)cc2)s1)c1ccncc1N1C2CCC1COC2` [Example 176, N-[5-[(4-chlorophenyl)methoxy]-1,3,4-thiadiazol-2-yl]-3-[3-oxa-8-azabicyclo[3.2.1]octan-8-yl]pyridine-4-carboxamide], the half-maximal inhibitory concentration (IC50) is at most 200 nM.

`N#Cc1cc(N2CCOC3(CC3)C2)c(C(=O)Nc2nnc(OCc3ccc(Cl)cc3)s2)cn1` [Example 177, N-[5-[(4-chlorophenyl)methoxy]-1,3,4-thiadiazol-2-yl]-6-cyano-4-[4-oxa-7-azaspiro[2.5]octan-7-yl]pyridine-3-carboxamide]: the IC50 was at most 200 nM.

As for `COc1ccccc1-c1cnccc1C(=O)Nc1nnc(OCc2cccc3[nH]ncc23)s1` [Example 181, N-[5-(1H-indazol-4-ylmethoxy)-1,3,4-thiadiazol-2-yl]-3-(2-methoxyphenyl)pyridine-4-carboxamide], the IC50 was at most 200 nM.

Take `O=C(Nc1nnc(OCc2ccc(Cl)cn2)s1)c1ccncc1-c1c(F)cccc1OC(F)F` [Example 182, N-(5-((5-chloropyridin-2-yl)methoxy)-1,3,4-thiadiazol-2-yl)-3-(2-(difluoromethoxy)-6-fluorophenyl)isonicotinamide]: the IC50 was at most 200 nM.

With `COc1cccc(F)c1-c1cc(C)ncc1C(=O)Nc1nnc(OCc2ccc(Cl)cc2)s1` [Example 183, N-(5-((4-chlorobenzyl)oxy)-1,3,4-thiadiazol-2-yl)-4-(2-fluoro-6-methoxyphenyl)-6-methylnicotinamide], the half-inhibitory concentration (IC50) was at most 200 nM.

Turning to `COc1cccc(F)c1-c1cc(C)ncc1C(=O)Nc1nnc(OCc2ccc(Cl)cn2)s1` [Example 184, N-(5-((5-chloropyridin-2-yl)methoxy)-1,3,4-thiadiazol-2-yl)-4-(2-fluoro-6-methoxyphenyl)-6-methylnicotinamide], the concentration for half-maximal inhibition (IC50) was at most 200 nM.
